Structures can show the parent of a compound that is named as a salt. Where two headings read alike, the source gives them in different places.
Assays:
[1] = tested on: platelet rich thrombus; assay: Rabbit extracorporeal shunt model; format: in vivo
Text: The technique describes an animal model in which a platelet rich thrombus is produced. The activity of TRI 50b and heparin are compared.
The carotid artery and jugular vein of anaesthetised rabbits were used to create an extracorporeal circuit containing a suspended foreign surface (silk thread). Thrombus deposition is initiated by creation of high sheer stress turbulent arterial blood flow, platelet activation, followed by coagulation in the presence of thrombogenic surfaces. Histopathological studies have shown that the thrombus is platelet rich.
NZW rabbits (males 2.5-3.5 kg) were used. The animals were allowed food and water up to the induction of anaesthesia.
Animals were premedicated with […] (Hypnorm) 0.15 ml total by intramuscular injection. General anaesthesia was induced with methohexitone (10 mg/ml) to effect, followed by endotracheal intubation. Anaesthesia was maintained with isoflurane (1-2.0%) carried in oxygen/nitrous oxide.
The animals were placed in dorsal recumbency and the ventral cervical region prepared for surgery. The left carotid artery and right jugular vein were exposed. The artery was cannulated with a large Portex® catheter (yellow gauge), cut to a suitable length. The vein was cannulated with a Silastic® catheter. The shunt comprised of a 5 cm length of ‘auto analyser’ line (purple/white gauge). Joins to the shunt on the arterial side were made with intermediate size Silastic® tubing. The shunt was filled with saline before exposure to the circulation. The right femoral artery was cannulated for the measurement of blood pressure.
The central section of the shunt contained a thread 3 centimetres in length. This consisted of 000 gauge Gutterman sewing silk so as to give four strands with a single knot at the end. (The knot section was outside the shunt).
Blood flow velocity was determined by use of ‘Doppler’ probes (Crystal Biotech). A silastic probe was positioned over the carotid artery at the point of insertion of the arterial catheter. Flow was recorded on a chart recorder using heat sensitive paper.

[2] = Hydrolysis of TRI 50b in acid conditions (HPLC assay); format: physicochemical; conditions: for example of an HPLC assay
Text: It has been discovered that TRI 50b tends to hydrolyse.

[3] = target: human α-thrombin (Homo sapiens, UniProt P00734); conditions: reported by J. Deadman et al, J. Med. Chem. 1995; cited from earlier work
[4] = Rat tail bleeding model; format: in vivo
Method: Bleeding times were determined in a rat tail bleeding model following intravenous administration of heparin and TRI 50b. The doses employed were chosen on the basis of their efficacy in the rat Wessler and dynamic models and were as follows:
Rats were anaesthetised with sodium pentabarbitone at 60 mg/kg (2.0 ml/kg of 30 mg/ml solution by ip. injection). Supplemental anaesthetic was given ip. as required.
A jugular vein was cannulated for the administration of test compound. The trachea was also cannulated with a suitable cannula and the animals allowed to breathe ‘room air’ spontaneously.
These were given in the appropriate vehicle at 1.0 ml/kg intravenously. Heparin was administered in saline, whilst TRI 50b was dissolved in ethanol, and then the resultant solution added to water for injection (1 part ethanol to 5 parts water).
Two minutes following compound administration the distal 2 mm of the animal's tail was sectioned with a new scalpel blade and the tail immersed in warm saline (37° C.) contained in a standard ‘universal’ container, so that the blood stream was clearly visible. The bleeding time recording was started immediately following transection until the cessation of blood flow from the tip of the tail.

[5] = i.v. pharmacokinetics in rats; format: in vivo; conditions: plasma, rat, 1.0 mg/kg iv; for half-life: read-out: Elimination half life; for MRT: read-out: Mean Residence Time (converted)
Method: Rats, body weight circa 250-300 g were used.
Both compounds were given at a dose of 1.0 mg/kg iv.
This was dosed at 1.33 ml/kg (equivalent to 30 mg/kg).

[6] = tested on: washed platelets; assay: Aggregation of washed platelets; format: cell-based
[7] = tested on: platelet procoagulant activity; assay: Inhibition of platelet procoagulant activity (washed platelets, prothrombin activation); format: cell-based; conditions: agonist Thrombin (1.15 nM)
Text: Platelet pro-coagulant activity may be observed as the increase, in rate of activation of prothrombin by factor Xa in the presence of factor Va upon the addition of platelets pretreated with thrombin, caused by thrombin alone, collagen alone or a mixture of thrombin and collagen. This property is due to an increase in anionic phospholipid on the surface of the platelet with concomitant release of microvesicle from the surface. This is an essential physiological reaction and people whose platelets have reduced ability to generate procoagulant activity (Scott syndrome) show an increased tendency for bleeding.
Washed platelets were treated with either 1.15 nM thrombin, 23 μg/ml collagen or a mixture of both at the same concentration at 37° C. TRI 50b was added either for 1 minute prior to the addition of activator or immediately after the incubation with activator. Platelet procoagulant activity was determined as described previously (Goodwin C A et al, Biochem J. 1995 8, 308: 15-21).

[8] = Tolerability in beagle dogs after i.v. dose; format: in vivo; conditions: dog, 1.0 mg/kg i.v., total duration of the study
Method: Blood samples were taken into 3.8% tri-sodium citrate (1+8) at pre dose, 2, 5, 10, 20, 30, minutes post dose and then at 1, 2, 3, 4, 6, 8, 12 and 24 hours post dose. Plasma was prepared by centrifugation and frozen at minus 20° C. pending analysis.

[9] = Stability: HPLC-PDA assay before and after drying over phosphorus pentoxide for 1 week; format: physicochemical
Method: An assay of TRI 50c and its sodium and lysine salts before and after drying.
For sample analysis, 5 mg of dried and non-dried material was weighed in a 5 mL volumetric flask and dissolved in 1 mL acetonitrile and filled up with demineralised water to 5 mL.
The quantitative evaluation was performed using an HPLC-PDA method.

[10] = target: T1, Thrombin (Homo sapiens, UniProt P00734); assay: Thrombin amidolytic assay (Vmax, S2238); format: biochemical; conditions: FIG. 1; TRI 50b as external control
T1 construct: Thrombin obtained from HTI, via Cambridge Bioscience; purchased HTI, via Cambridge Bioscience
Method: Chromogenic substrate S2238 dissolved to 4 mM (25 mg+10 mI) in water. Diluted to 50 μM with assay buffer for use in assay at 5 μM. (S2238 is H-D-Phe-Pip-Arg-pNA).
Thrombin obtained from HTI, via Cambridge Bioscience, and aliquoted at 1 mg/ml with assay buffer. Dilute to 100 ng/ml with assay buffer and then a further 1 in 3 for use in the assay.

COCCC[C@H](NC(=O)[C@@H]1CCCN1C(=O)[C@@H](Cc1ccccc1)NC(=O)OCc1ccccc1)B1OC(C)(C)C(C)(C)O1 [TRI 50b, Cbz-(R)-Phe-Pro-BoroMpg-OPinacol]
ANTITHROMBOTIC ACTIVITY ([1]; 3.0 mg/kg iv): Active
bleeding in shunt model ([1]; 3 mg/kg to 10 mg/kg iv): without bleeding
ANTITHROMBOTIC ACTIVITY ([1]; 10 mg/kg iv): Active
hydrolysis to the acid form, half life [2]: short half life
Ki [3]: 7 nM
Bleeding time min (±SEM) ([4]; 5 mg/kg iv): 11.3 ± 1.2 min
Bleeding time min (±SEM) ([4]; 10 mg/kg iv): 30.4 ± 5.2 min
clearance [5]: 10 mL/min/kg
half-life [5]: 35 min
MRT [5]: 46 min
effect on ADP, collagen or epinephrine induced aggregation of washed platelets [6]: does not have an effect
IC50 ([7]; TRI 50b added 1 minute prior to activator, read-out: IC50 plus pre-incubation): 8 nM
IC50 ([7]; TRI 50b added after incubation with activator, read-out: IC50 without incubation): 3000 nM

COCCC[C@H](NC(=O)[C@@H]1CCCN1C(=O)[C@@H](Cc1ccccc1)NC(=O)OCc1ccccc1)B(O)O [TRI 50c sodium salt, Cbz-(R)-Phe-(S)-Pro-(R)-Mpg-B(OH)2 monosodium salt]
tolerability [8]: tolerated well with no adverse events
stability: effect of drying on purity ([9]; in words): not significantly reduced

COCCC[C@H](NC(=O)[C@@H]1CCCN1C(=O)[C@@H](Cc1ccccc1)NC(=O)OCc1ccccc1)B(O)O [TRI 50c, Cbz-(R)-Phe-(S)-Pro-(R)-boroMpg-OH]
clearance [5]: 11.3 mL/min/kg
half-life [5]: 36.6 min
MRT [5]: 45 min
Purity (% area) ([9]; non-dried): 85.54 % area
Amount ([9]; non-dried, 5 mg in 5 mL): 947.3 µg/mL

COCCC[C@H](NC(=O)[C@@H]1CCCN1C(=O)[C@@H](Cc1ccccc1)NC(=O)OCc1ccccc1)B([O-])O.COCCC[C@H](NC(=O)[C@@H]1CCCN1C(=O)[C@@H](Cc1ccccc1)NC(=O)OCc1ccccc1)B([O-])O.[Mg+2] [magnesium salt of TRI 50c]
activity in thrombin amidolytic assay (Vmax) [10]: same activity as TRI 50b

— patent publication US7371729B2, “Boronic acid salts useful in parenteral formulations” (Trigen Limited, priority 2002, dated 2008)
